These results are taken from patent US20020151876A1, “Devices and methods for management of bone density” (priority 2001, published 2002).

Data set [1] has as its system patients with Crohn's disease. The conditions noted are these: cited from earlier work.
The next data set relates to patients. Conditions: long-term use; cited from earlier work.
The subject of another data set is osteoblast-like cells. The conditions noted are these: cited from earlier work.
The next data set deals with tumor burden in bone. The conditions noted are these: two separate studies, relatively small number of patients; cited from earlier work.
A further data set relates to rabbit model. In words: local response to subcutaneous injection, skin reaction scoring (erythema, eschar, edema, necrosis). In kind it is in vivo. On the procedure:
A test was performed to evaluate the local response to pamidronate sodium following subcutaneous injection into a rabbit model.
The pamidronate sodium was reconstituted with 10 mL of phosphate buffered saline (PBS) to achieve a concentration of 9 mg/mL. The 9 mg/mL. solution was then diluted to achieve a concentration of 0.9 mg/mL.
On the day of the test, the fur on the back of each animal was removed on both sides of the spinal column with electric clippers. A 0.1 mL portion of two concentrations of the sample solution was injected subcutaneously at each of three sites along the spinal column of each of two rabbits. A 0.1 mL portion of PBS was injected subcutaneously at three sites along the other side of the spinal column of the same two rabbits. […] Scoring was at 24 hours, 48 hours, and 72 hours. All of the animals were observed daily for signs of ill health.
The injection sites were examined and scored for any tissue reactions, with results scored according to Table 1.
The average erythema and edema scores for each test article and controls are determined at each scoring interval (24, 48, and 72 hours) for each rabbit.

For `NCCCC(O)(P(=O)(O)O)P(=O)(O)O` [alendronate], the safety and tolerability entry in data set [1] was “safe and well tolerated”.

As to `NC(=O)N1c2ccccc2C=Cc2ccccc21` [carbamazepine], the “bone mass in patients” value in the data set with patients is “decrease bone mass”. Besides, in the data set on osteoblast-like cells, the “proliferation of osteoblast-like cells” value is listed as “directly suppress proliferation”.

For the molecule `O=P(O)(O)C(Cl)(Cl)P(=O)(O)O` [clodronate], the “tumor burden in bone” value with tumor burden in bone is “decreases tumor burden in bone”.

As for `NCCC(O)(P(=O)(O)O)P(=O)(O)O` [pamidronate sodium], the “injection site reaction (in words)” value in the data set with rabbit model (any of the 0.9 mg/mL sites) was “no evidence of erythema or edema”; in the data set on rabbit model (one 9 mg/mL site on one rabbit, 48 and 72 hours), “Slight erythema”; with rabbit model (one of the 9 mg/mL sites, 24 hours, both animals), “Slight erythema”. Also, the “signs of ill health, daily observation” value in the data set with rabbit model (rabbits, throughout the test period (72 hours)) is given as “remained healthy”.

For `O=C1NC(=O)C(c2ccccc2)(c2ccccc2)N1` [phenytoin], the “bone mass in patients” value in the data set on patients is listed as “decrease bone mass”. Further, in the data set on osteoblast-like cells, the “proliferation of osteoblast-like cells” value is reported as “directly suppress proliferation”.
